{"source": "patent US20240247048A1", "about": "(EMORY UNIVERSITY, priority 2021, published 2024)", "key": {"[1]": {"system": "C1498 acute myeloid leukemia cells", "assay": "survival of mice engrafted with C1498 acute myeloid leukemia", "format": "in vivo, mouse", "parameters": "percentage of survival: concentration or dose not given beside the values", "settings": "for Median survival time / Percentage alive day 60: 1 x 10E6 C1498 i.v. on day 0, 10 ug peptide s.c. daily on days 6-12; for percentage of survival: FIG. 3, leukemia-bearing mice treated with peptide", "method": "B6 (CD45.2, H-2K^b) mice were administered C1498 1×10^6/mouse through tail vein. […] Survival of the mice was observed daily. Data were pooled from 3 replicated experiments.\nB6 (CD45.2, H-2K^b) mice were administered C1498 1×10^6/mouse through tail vein. […] Survival of the mice was observed daily. Survival of the mice were pooled from 3 replicated experiments and analyzed by log-rank test compared with the survival of mice treated with scrambled peptide.\nB6 SJL (CD45.1, H-2K^b) mice were administered C1498 (CD45.2 H-2K^b) 1×10^6/mouse through tail vein. […] The mice were bled weekly from the submandibular vein, starting from day 6, prior to the administration of peptides. Antibodies to CD45.2 identified myeloid leukemia cells and antibodies to CD45.1 identified murine leukocytes of the host.\n(§1) VIP-related peptides tested in silico for predicted binding affinities to human VPAC1 and VPAC2 (Creative Biolabs). Docking scores show predicted free energy change associated with peptide binding. Note that a greater negative score is predicted to be associated with higher binding affinity. Based upon an initial screen of 300 peptides for binding affinity to VPAC1 and screening a subset of 100 peptides for binding affinity to VPAC2, a select group of peptides were synthesized and tested for their ability to stimulate proliferation of luciferase+ mouse T cells in vitro. The lowest concentration of peptide that led to maximal luminescence is shown. Proliferation data represents the relative level of luminescence from quadruplicate wells containing 1×10E5 T cells/well in a 96 well tissue culture plate stimulated for 96 hours with plate-bound anti-CD3 antibodies. Confirmatory in vivo testing of select peptides was then performed based upon their ability to induce autologous anti-leukemia responses in C57Bl/6 mice that had been previously injected with 1×10E6 C1498 acute myeloid leukemia cells. Leukemia cells were injected on day 0, 10 ug peptide was injected s.c. daily on days 6-12. The predicted binding affinity to VPAC1 and/or VPAC2 was associated with enhanced activity in stimulating mouse T cell proliferation and anti-leukemia activity in mice.\nTo test the ability of the disclosed VIP-R antagonists to effect survival to acute myeloid leukemia survival, B6 (CD45.2, H-2K^b) mice were administered C1498 1×10^6/mouse through tail vein. […] Survival of the mice was observed daily."}, "[2]": {"system": "luciferase+ mouse T cells", "assay": "proliferation of luciferase+ mouse T cells in vitro (plate-bound anti-CD3, luminescence)", "format": "cell-based", "settings": "96 hours; for lowest concentration of peptide that led to maximal luminescence: luc+ T cell proliferation, plate-bound anti-CD3; for luc+ T cell proliferation: relative luminescence, quadruplicate wells, plate-bound anti-CD3, daily addition of peptide, at the concentration in brackets", "description": "as §1"}, "human T cells": {"system": "human T cells", "assay": "activation of healthy-donor human T cells (anti-CD3), marker expression by flow cytometry", "format": "cell-based", "settings": "across multiple donors", "method": "Mean value from ‘Activated’ group shown with dotted line (---) for comparison. Responses from same healthy donors are shown with same color dots. Error bars are computed as the standard error of the mean (SEM) from 6 healthy donor samples.\nThis study adopted an ex-vivo system using human T cells isolated from healthy donors to screen for novel VIP-R antagonist peptides. Human T cells were cultured over 6 or 24 hours with activation in the presence or absence of peptides and were assessed for percent CD69 surface expression by flow cytometry to measure the state of T cell activation. The activity of the peptides was determined by percent increase in CD69 expression relative to no peptide control. […] We also observed that amongst the donors, most were classified as average responders, with measured value for CD69 expression within the error bars while two others had measured values outside the error bars, one sample reflecting a super-responder (purple dots) and one sample reflecting a slow-responder (green dots) (FIGS. 10A and 10B). […]\nHuman T cell activation and expansion. […] Cells were counted using Trypan blue dye and phenotyped via flow cytometry on day 9. […]"}}, "data": [{"sequence": "HSDAVFINTKLDKLNTRLVSAQNYMKYR [SCRAM1, reference compound]", "values": [{"measurement": "Median survival time", "setting": "[1]", "result": 28, "unit": "days"}, {"measurement": "Percentage alive day 60", "setting": "[1]", "result": 0, "unit": "%"}]}, {"sequence": "HSDAVFTDNYTRLRKQMAVKKYLNSILN [VIP, reference compound]", "values": [{"measurement": "Median survival time", "setting": "[1]", "result": 30, "unit": "days"}, {"measurement": "Percentage alive day 60", "setting": "[1]", "result": 0, "unit": "%"}, {"measurement": "lowest concentration of peptide that led to maximal luminescence", "setting": "[2]", "result": 0.1, "unit": "µM"}, {"measurement": "luc+ T cell proliferation", "setting": "[2]", "result": 77, "unit": "% + 13%"}]}, {"sequence": "KKPRRPYTVNCTSLRKQIAVKKYLMLILN [ANT219]", "values": [{"measurement": "Median survival time", "setting": "[1]", "result": 35, "unit": "days"}, {"measurement": "Percentage alive day 60", "setting": "[1]", "result": 20, "unit": "%"}, {"measurement": "percentage of survival", "setting": "[1]", "result": 20, "unit": "%"}, {"measurement": "lowest concentration of peptide that led to maximal luminescence", "setting": "[2]", "result": 3, "unit": "µM"}, {"measurement": "luc+ T cell proliferation", "setting": "[2]", "result": 189, "unit": "% + 8%"}]}, {"sequence": "KPRRPYADNCTRLRKQIAVNKKYLNSILN [ANT114]", "values": [{"measurement": "Median survival time", "setting": "[1]", "result": 34, "unit": "days"}, {"measurement": "Percentage alive day 60", "setting": "[1]", "result": 20, "unit": "%"}, {"measurement": "percentage of survival", "setting": "[1]", "result": 20, "unit": "%"}]}, {"sequence": "KPRRPYADNYTRLRKQMAVNKYLNLILN [ANT058]", "values": [{"measurement": "Median survival time", "setting": "[1]", "result": 35, "unit": "days"}, {"measurement": "Percentage alive day 60", "setting": "[1]", "result": 30, "unit": "%"}, {"measurement": "percentage of survival", "setting": "[1]", "result": 30, "unit": "%"}]}, {"sequence": "KPRRPYAVNCTSLRKQIAVKKYLMSILN [ANT203]", "values": [{"measurement": "Median survival time", "setting": "[1]", "result": 34, "unit": "days"}, {"measurement": "Percentage alive day 60", "setting": "[1]", "result": 25, "unit": "%"}, {"measurement": "percentage of survival", "setting": "[1]", "result": 25, "unit": "%"}, {"measurement": "lowest concentration of peptide that led to maximal luminescence", "setting": "[2]", "result": 3, "unit": "µM"}, {"measurement": "luc+ T cell proliferation", "setting": "[2]", "result": 185, "unit": "% + 8%"}]}, {"sequence": "KPRRPYAVNCTSLRKQIAVNKYLNSILN [ANT202]", "values": [{"measurement": "lowest concentration of peptide that led to maximal luminescence", "setting": "[2]", "result": 3, "unit": "µM"}, {"measurement": "luc+ T cell proliferation", "setting": "[2]", "result": 171, "unit": "% + 8%"}]}, {"sequence": "KPRRPYAVNYTRLRKQIAVKKYLMSILN [ANT105]", "values": [{"measurement": "lowest concentration of peptide that led to maximal luminescence", "setting": "[2]", "result": 3, "unit": "µM"}, {"measurement": "luc+ T cell proliferation", "setting": "[2]", "result": 121, "unit": "% + 6%"}]}, {"sequence": "KPRRPYAVNYTRLRKQMAVNKYLMSILN [ANT107]", "values": [{"measurement": "Median survival time", "setting": "[1]", "result": 38, "unit": "days"}, {"measurement": "Percentage alive day 60", "setting": "[1]", "result": 30, "unit": "%"}, {"measurement": "percentage of survival", "setting": "[1]", "result": 20, "unit": "%"}]}, {"sequence": "KPRRPYINTKLDKLNTRLVSAQNYMKYR [SCRAM2, reference compound]", "values": [{"measurement": "Percentage alive day 60", "setting": "[1]", "result": 0, "unit": "%"}, {"measurement": "luc+ T cell proliferation", "setting": "[2]", "result": 108.74, "unit": "%"}]}, {"sequence": "KPRRPYTDNCTRLRKQMAVKKYLNSILN [ANT005]", "values": [{"measurement": "lowest concentration of peptide that led to maximal luminescence", "setting": "[2]", "result": 3, "unit": "µM"}, {"measurement": "luc+ T cell proliferation", "setting": "[2]", "result": 187, "unit": "% + 1%"}]}, {"sequence": "KPRRPYTDNCTSLRKQIAVNKYLNLILN [ANT197]", "values": [{"measurement": "Median survival time", "setting": "[1]", "result": 37, "unit": "days"}, {"measurement": "Percentage alive day 60", "setting": "[1]", "result": 35, "unit": "%"}, {"measurement": "percentage of survival", "setting": "[1]", "result": 35, "unit": "%"}, {"measurement": "lowest concentration of peptide that led to maximal luminescence", "setting": "[2]", "result": 3, "unit": "µM"}, {"measurement": "luc+ T cell proliferation", "setting": "[2]", "result": 161, "unit": "% + 13%"}]}, {"sequence": "KPRRPYTDNYTRLRKQMAVKKYLNSILN [VIPhyb, reference compound]", "values": [{"measurement": "Median survival time", "setting": "[1]", "result": 34, "unit": "days"}, {"measurement": "Percentage alive day 60", "setting": "[1]", "result": 5, "unit": "%"}, {"measurement": "percentage of survival", "setting": "[1]", "result": 5, "unit": "%"}, {"measurement": "lowest concentration of peptide that led to maximal luminescence", "setting": "[2]", "result": 1, "unit": "µM"}, {"measurement": "luc+ T cell proliferation", "setting": "[2]", "result": 197, "unit": "% + 38%"}]}, {"sequence": "KPRRPYTSDYTRLRKQMAVKKYLNSILN [ANT300]", "values": [{"measurement": "Median survival time", "setting": "[1]", "result": 47, "unit": "days"}, {"measurement": "Percentage alive day 60", "setting": "[1]", "result": 33.30, "unit": "%"}, {"measurement": "lowest concentration of peptide that led to maximal luminescence", "setting": "[2]", "result": 0.3, "unit": "µM"}, {"measurement": "luc+ T cell proliferation", "setting": "[2]", "result": 216, "unit": "% + 20%"}]}, {"sequence": "KPRRPYTVNYTSLRKQIAVKKYLMLILN [ANT195]", "values": [{"measurement": "Median survival time", "setting": "[1]", "result": 38, "unit": "days"}, {"measurement": "Percentage alive day 60", "setting": "[1]", "result": 40, "unit": "%"}, {"measurement": "percentage of survival", "setting": "[1]", "result": 40, "unit": "%"}, {"measurement": "activity compared among the three antagonists (CD69)", "setting": "human T cells", "result": "highest activity"}, {"measurement": "lowest concentration of peptide that led to maximal luminescence", "setting": "[2]", "result": 3, "unit": "µM"}, {"measurement": "luc+ T cell proliferation", "setting": "[2]", "result": 161, "unit": "% + 23%"}]}]}
